{
  "source": "patent US20220280513A1",
  "about": "“ENHANCING THE ANTIVIRAL EFFICACY OF RNA VIRUS INHIBITION BY COMBINATION WITH MODULATORS OF PYRIMIDINE METABOLISM” (The Board of Trustees of the Leland Stanford Junior …, priority 2019, published 2022)",
  "key": {"[1]": {"system": "intracellular uridine and cytidine nucleotide levels", "experiment": "LC-MS/MS analysis of intracellular nucleotides in A549 cells", "format": "cell-based", "details": "250 μM with 1 μM GSK983, 5 μM uridine, 6 h", "method": "FIG. 7. LC-MS analysis of intracellular nucleotides. (A) LC-MS analysis of intracellular uridine and cytidine nucleotide levels after 6 h treatments. In all assays, the culture medium was supplemented with 5 μM uridine and 1 μM GSK983. Error bars represent ±S.D. of two replicates. (B) LC-MS detection of mono-, di- and tri-phosphates of CPU and 5-F-CPU in cells. LC-MS/MS was performed on an Agilent 1290 infinity II LC system tandem with 6370 triple quad mass spectrometer using ion pairing chromatography. LC separation was performed at 40° C. with a solvent flow rate of 0.25 mL/min on a Zorbax RRHD Extended-C18 column (2.1×150 mm, 1.8 μM). Buffer A contained 97% H2O, 3% MeOH, 5 mM tributylamine, 5.5 mM Acetic acid and 1 μM medronic acid with pH=5.0; Buffer B contains ca. 100% MeOH, 5 mM tributylamine, 5.5 mM Acetic acid and 5 μM medronic acid with pH=7.0 The initial mobile phase composition was 100% solvent A, and a constant or linear gradient was applied after sample injection with eluent B varying as follows: 0% at 2.5 min, 20% at 7.5 min, 45% at 14 min, 99% at 20 to 23 min, and 0% from 23.1 to 27.1 min. […] Samples were measured in the negative ESI mode with capillary voltage at −3.5 kV. […]\nWith optimized sampling and detection method in hand, pyrimidine nucleotide levels were measured in cells cultured with either 250 μM CPU, 5-F-CPU or 5′-F-CPU in combination with 1 μM GSK983 (FIG. 7A). […]"}, "[2]": {"details": "dose of 1 g/kg; cited from earlier work"}, "DENV-2 virus": {"system": "DENV-2 virus", "experiment": "DENV antiviral assay, DENV-Luc replication in A549 cells (FIGS. 8 and 9)", "format": "cell-based, dengue serotype 2 (DENV-2) strain 16681", "method": "DENV-Luc reporter virus generation: The design of the pDENV-Luc infectious clone derived from dengue serotype 2 (DENV-2) strain 16681 was described in detail by Marceau et al (Marceau et al., 2016). The plasmid was linearized with Xbal and in vitro transcribed into the genomic RNA of DENV-Luc virus using the T7 Megascript Kit (Ambion) in the presence of m7G(5′)ppp(5′)G RNA Cap Structure Analog (NEB). 5 μg DENV-Luc RNA was electroporated into 2×10^6 Vero cells. The transfected cells were resuspended with Dulbecco's modified Eagle's medium (DMEM; Invitrogen) with 10% FBS and 100 U/ml penicillin-streptomycin and transferred into a T-175 flask incubated at 37° C. with 5% CO2. Supernatants were collected and replenished with fresh medium every 24 h from day 17 to 24 post-transfection, pooled together, clarified by centrifugation and stored in aliquots at −80° C. The amount of infectious DENV-Luc virus in the stock was titrated using the TCID50 assay and calculated by the Spearman & Kärber algorithm as described previously (Hierholzer and Killington, 1996).\nDENV antiviral assays (For FIGS. 8 and 9): A549 cells were plated overnight at 5,000 cells/well in 96-well plates in complete DMEM and incubated for 24 h at 37° C. Cells were then treated with pyrimidine de novo synthesis inhibitors, and/or salvage inhibitors, and/or R1479 in DMEM supplemented with 20 μM uridine. Four hours after drug addition, cells were infected with DENV-2 virus at a MOI=0.1. After 72 h, DENV-Luc replication was monitored by the production of Renilla luciferase, which was measured using the Renilla-Glo Luciferase Assay System (Promega) according to the specifications of the manufacturer. For the accompanying cell viability assay, A549 cells were seeded at 5,000 cells/well in 96-well plates in complete DMEM and incubated for 24 h at 37° C. Cell were then treated with pyrimidine de novo synthesis inhibitors, and/or salvage inhibitors, and/or R1479 in DMEM supplemented with 20 μM uridine. Following 48 h treatment, cell viability was monitored by ATP levels, which was measured using the CellTiter-Glo Luciferase Assay System (Promega) according to the specifications of the manufacturer."}},
  "data": [
    {"smiles": "O=c1ccn([C@@H]2C=C(CO)[C@@H](O)[C@H]2O)c(=O)[nH]1", "note": "[CPU, 1-((1R,4R,5S)-4,5-dihydroxy-3-(hydroxymethyl)cyclopent-2-en-1-yl)pyrimidine-2,4(1H,3H)-dione]", "values": [
      {"measurement": "depletion of UTP and CTP concentrations", "setting": "[1]", "result": "more strongly than 5-F-CPU"},
      {"measurement": "toxicity in mice", "setting": "[2]", "result": "does not show appreciable toxicity"},
      {"measurement": "dengue virus replication, combination", "setting": "DENV-2 virus; CPU (500 μM) combined with 1 μM GSK983, 20 μM uridine", "result": "suppressed dengue virus"},
      {"measurement": "antiviral activity as single agent", "setting": "DENV-2 virus; single agents, 20 μM uridine", "result": "neither GSK983 nor CPU were effective"}
    ]}
  ]
}
